According to ChEMBL document CHEMBL3885881, “DrugMatrix”:

Organism: Rattus norvegicus
Test: DrugMatrix - Regimen: Daily Repeat
Format: toxicity, organism-based, Sprague-Dawley
Design: regimen Daily Repeat, gender Male, age 6-8 weeks
Details: in vivo, po, route oral GAVAGE, vehicle 100 % WATER; for ABSOLUTE BASOPHIL / ABSOLUTE EOSINOPHIL / ABSOLUTE LYMPHOCYTE / ABSOLUTE MONOCYTE / ABSOLUTE SEGMENTED NEUTROPHIL / BASOPHIL / EOSINOPHIL / ERYTHROCYTE COUNT / HEMATOCRIT / HEMOGLOBIN / LEUKOCYTE COUNT / LYMPHOCYTE / MEAN CORPUSCULAR HEMOGLOBIN / MEAN CORPUSCULAR HEMOGLOBIN CONCENTRATION / MEAN CORPUSCULAR VOLUME / MONOCYTE / NEUTROPHIL / NUCLEATED RED BLOOD CELLS / PLATELET COUNT: tissue Blood; for ALANINE AMINOTRANSFERASE / ALBUMIN / ALKALINE PHOSPHATASE / ASPARTATE AMINOTRANSFERASE / BLOOD UREA NITROGEN / CARBON DIOXIDE / CHLORIDE / CHOLESTEROL / CREATINE PHOSPHOKINASE / CREATININE / GLUCOSE / LACTATE DEHYDROGENASE / LIPASE / PHOSPHORUS / POTASSIUM / SODIUM / TOTAL BILIRUBIN / TOTAL PROTEIN / URIC ACID: tissue Plasma
[1] = 0 mg/kg, 72 h, dose level Control, time 3 day
[2] = 0 mg/kg, 120 h, dose level Control, time 5 day
[3] = 3525 mg/kg, 72 h, dose level High, time 3 day
[4] = 3525 mg/kg, 120 h, dose level High, time 5 day

OCCO [ETHYLENE GLYCOL]
ABSOLUTE BASOPHIL [1]: 0 CELLS/uL | ABSOLUTE EOSINOPHIL [1]: 0 CELLS/uL | ABSOLUTE LYMPHOCYTE [1]: 7802.17 CELLS/uL | ABSOLUTE MONOCYTE [1]: 13.5 CELLS/uL | ABSOLUTE SEGMENTED NEUTROPHIL [1]: 617.67 CELLS/uL | BASOPHIL [1]: 0% | EOSINOPHIL [1]: 0% | ERYTHROCYTE COUNT [1]: 5.35 x10E6/uL | HEMATOCRIT [1]: 33.02% | HEMOGLOBIN [1]: 12.88 G/DL | LEUKOCYTE COUNT [1]: 8.43 x10E3/uL | LYMPHOCYTE [1]: 92.67% | MEAN CORPUSCULAR HEMOGLOBIN [1]: 24.12 pg | MEAN CORPUSCULAR HEMOGLOBIN CONCENTRATION [1]: 39.03 G/DL | MEAN CORPUSCULAR VOLUME [1]: 61.8 fL | MONOCYTE [1]: 0.17% | NEUTROPHIL [1]: 7.17% | NUCLEATED RED BLOOD CELLS [1]: 0 /100WBC | PLATELET COUNT [1]: 1124.83 x10E3/uL | ALANINE AMINOTRANSFERASE [1]: 54.17 u/L | ALBUMIN [1]: 4.07 G/DL | ALKALINE PHOSPHATASE [1]: 383.83 u/L | ASPARTATE AMINOTRANSFERASE [1]: 82.17 u/L | BLOOD UREA NITROGEN [1]: 13.67 mg/dL | CARBON DIOXIDE [1]: 31 mmol/L | CHLORIDE [1]: 100.83 MEQ/L | CHOLESTEROL [1]: 65.17 mg/dL | CREATINE PHOSPHOKINASE [1]: 228.33 u/L | CREATININE [1]: 0.12 mg/dL | GLUCOSE [1]: 148 mg/dL | LACTATE DEHYDROGENASE [1]: 97.83 u/L | LIPASE [1]: 9.17 u/L | PHOSPHORUS [1]: 9.75 mg/dL | POTASSIUM [1]: 5.85 MEQ/L | SODIUM [1]: 147.02 MEQ/L | TOTAL BILIRUBIN [1]: 0.18 mg/dL | TOTAL PROTEIN [1]: 6.1 G/DL | URIC ACID [1]: 0.5 mg/dL | ABSOLUTE BASOPHIL [2]: 0 CELLS/uL | ABSOLUTE EOSINOPHIL [2]: 0 CELLS/uL | ABSOLUTE LYMPHOCYTE [2]: 10538 CELLS/uL | ABSOLUTE MONOCYTE [2]: 15.83 CELLS/uL | ABSOLUTE SEGMENTED NEUTROPHIL [2]: 762.83 CELLS/uL | BASOPHIL [2]: 0% | EOSINOPHIL [2]: 0% | ERYTHROCYTE COUNT [2]: 5.49 x10E6/uL | HEMATOCRIT [2]: 34.63% | HEMOGLOBIN [2]: 13.72 G/DL | LEUKOCYTE COUNT [2]: 11.32 x10E3/uL | LYMPHOCYTE [2]: 92.67% | MEAN CORPUSCULAR HEMOGLOBIN [2]: 24.97 pg | MEAN CORPUSCULAR HEMOGLOBIN CONCENTRATION [2]: 39.57 G/DL | MEAN CORPUSCULAR VOLUME [2]: 63.05 fL | MONOCYTE [2]: 0.17% | NEUTROPHIL [2]: 7.17% | NUCLEATED RED BLOOD CELLS [2]: 0.17 /100WBC | PLATELET COUNT [2]: 802 x10E3/uL | ALANINE AMINOTRANSFERASE [2]: 50.5 u/L | ALBUMIN [2]: 4.07 G/DL | ALKALINE PHOSPHATASE [2]: 336.83 u/L | ASPARTATE AMINOTRANSFERASE [2]: 81 u/L | BLOOD UREA NITROGEN [2]: 14.17 mg/dL | CARBON DIOXIDE [2]: 32 mmol/L | CHLORIDE [2]: 98.33 MEQ/L | CHOLESTEROL [2]: 69.17 mg/dL | CREATINE PHOSPHOKINASE [2]: 253.33 u/L | CREATININE [2]: 0.13 mg/dL | GLUCOSE [2]: 153.67 mg/dL | LACTATE DEHYDROGENASE [2]: 157 u/L | LIPASE [2]: 9 u/L | PHOSPHORUS [2]: 10.78 mg/dL | POTASSIUM [2]: 6.11 MEQ/L | SODIUM [2]: 144.57 MEQ/L | TOTAL BILIRUBIN [2]: 0.15 mg/dL | TOTAL PROTEIN [2]: 6.05 G/DL | URIC ACID [2]: 0.73 mg/dL | ABSOLUTE BASOPHIL [3]: 0 CELLS/uL | ABSOLUTE EOSINOPHIL [3]: 0 CELLS/uL | ABSOLUTE LYMPHOCYTE [3]: 6464 CELLS/uL | ABSOLUTE MONOCYTE [3]: 70.67 CELLS/uL | ABSOLUTE SEGMENTED NEUTROPHIL [3]: 598.67 CELLS/uL | BASOPHIL [3]: 0% | EOSINOPHIL [3]: 0% | ERYTHROCYTE COUNT [3]: 5.57 x10E6/uL | HEMATOCRIT [3]: 33.43% | HEMOGLOBIN [3]: 13.07 G/DL | LEUKOCYTE COUNT [3]: 7.13 x10E3/uL | LYMPHOCYTE [3]: 90.67% | MEAN CORPUSCULAR HEMOGLOBIN [3]: 23.5 pg | MEAN CORPUSCULAR HEMOGLOBIN CONCENTRATION [3]: 39.1 G/DL | MEAN CORPUSCULAR VOLUME [3]: 60.17 fL | MONOCYTE [3]: 1% | NEUTROPHIL [3]: 8.33% | NUCLEATED RED BLOOD CELLS [3]: 0 /100WBC | PLATELET COUNT [3]: 918.33 x10E3/uL | ALANINE AMINOTRANSFERASE [3]: 68 u/L | ALBUMIN [3]: 3.93 G/DL | ALKALINE PHOSPHATASE [3]: 332 u/L | ASPARTATE AMINOTRANSFERASE [3]: 88.33 u/L | BLOOD UREA NITROGEN [3]: 12.33 mg/dL | CARBON DIOXIDE [3]: 36 mmol/L | CHLORIDE [3]: 97.67 MEQ/L | CHOLESTEROL [3]: 61 mg/dL | CREATINE PHOSPHOKINASE [3]: 279 u/L | CREATININE [3]: 0.1 mg/dL | GLUCOSE [3]: 140 mg/dL | LACTATE DEHYDROGENASE [3]: 110.33 u/L | LIPASE [3]: 9 u/L | PHOSPHORUS [3]: 9 mg/dL | POTASSIUM [3]: 5.82 MEQ/L | SODIUM [3]: 143.77 MEQ/L | TOTAL BILIRUBIN [3]: 0.17 mg/dL | TOTAL PROTEIN [3]: 5.7 G/DL | URIC ACID [3]: 0.77 mg/dL | ABSOLUTE BASOPHIL [4]: 0 CELLS/uL | ABSOLUTE EOSINOPHIL [4]: 0 CELLS/uL | ABSOLUTE LYMPHOCYTE [4]: 7667.33 CELLS/uL | ABSOLUTE MONOCYTE [4]: 0 CELLS/uL | ABSOLUTE SEGMENTED NEUTROPHIL [4]: 399.33 CELLS/uL | BASOPHIL [4]: 0% | EOSINOPHIL [4]: 0% | ERYTHROCYTE COUNT [4]: 5.77 x10E6/uL | HEMATOCRIT [4]: 35.47% | HEMOGLOBIN [4]: 14.17 G/DL | LEUKOCYTE COUNT [4]: 8.07 x10E3/uL | LYMPHOCYTE [4]: 95.33% | MEAN CORPUSCULAR HEMOGLOBIN [4]: 24.53 pg | MEAN CORPUSCULAR HEMOGLOBIN CONCENTRATION [4]: 39.97 G/DL | MEAN CORPUSCULAR VOLUME [4]: 61.43 fL | MONOCYTE [4]: 0% | NEUTROPHIL [4]: 4.67% | NUCLEATED RED BLOOD CELLS [4]: 0 /100WBC | PLATELET COUNT [4]: 1091.67 x10E3/uL | ALANINE AMINOTRANSFERASE [4]: 54 u/L | ALBUMIN [4]: 4.1 G/DL | ALKALINE PHOSPHATASE [4]: 328.33 u/L | ASPARTATE AMINOTRANSFERASE [4]: 80 u/L | BLOOD UREA NITROGEN [4]: 14 mg/dL | CARBON DIOXIDE [4]: 35.67 mmol/L | CHLORIDE [4]: 96.33 MEQ/L | CHOLESTEROL [4]: 66 mg/dL | CREATINE PHOSPHOKINASE [4]: 238.33 u/L | CREATININE [4]: 0.14 mg/dL | GLUCOSE [4]: 145 mg/dL | LACTATE DEHYDROGENASE [4]: 115.67 u/L | LIPASE [4]: 9.33 u/L | PHOSPHORUS [4]: 9.87 mg/dL | POTASSIUM [4]: 6.09 MEQ/L | SODIUM [4]: 144 MEQ/L | TOTAL BILIRUBIN [4]: 0.17 mg/dL | TOTAL PROTEIN [4]: 6.17 G/DL | URIC ACID [4]: 0.73 mg/dL
